From US20100292255A1, “Therapeutic Compounds and Their Use in Treating Diseases and Disorders” (Myriad Pharmaceuticals, Inc., priority 2007, published 2010)

Molecular target: T1, purified human Hsp90
T1 construct: purified human Hsp90 (Stressgen, SPP-770)
Assay: Hsp90 binding assay: displacement of BODIPY-labeled geldanamycin measured by fluorescence polarization
Details: BODIPY-GM 10 nM, Hsp90 30 nM, overnight at room temperature; read-out: GM displacement from purified Hsp90 measured by FP IC 50
Procedure: Binding of the Example Compounds to purified Hsp90 was assayed by measuring the displacement of BODIPY-labeled geldanamycin (BODIPY-GM) from purified human Hsp90, using a fluorescence polarization assay adapted from Kim et al. (J. Biomolec. Screening, 9(5):375-381 (2004)). Compound dilutions (in 100% DMSO) were added to black-bottom 96-well plates (Greiner Bio-One, Monroe, N.C.) in 2% DMSO final, and equal volumes of BODIPY-GM (10 nM final) and purified human Hsp90 (Stressgen, SPP-770; 30 nM final) (Assay Designs, Ann Arbor, Mich.) in assay buffer (20 mM HEPES-KOH pH 7.3, 50 mM KCl, 5 mM MgCl2, 20 mM Na2MoO4, 0.01% NP-40, 0.1 mg/mL bovine gamma globulin [P2045; Invitrogen, Carlsbad, Calif.], 2 mM DTT) were added sequentially to yield a final volume of 50 microliters. Plates were incubated overnight at room temperature. Parallel and perpendicular fluorescence measurements were read (Analyst AD plate reader; LJL BioSystems, Middletown, Conn.) with excitation/emission wavelengths of 485/530 nm. Background fluorescence (buffer only) was subtracted, and fluorescence polarization (FP) values, expressed in mP units, were calculated from parallel and perpendicular fluorescence readings as follows:
FP=(parallel−perpendicular)/(parallel+perpendicular)*1000.
Percent inhibition was calculated by normalizing the FP values to those obtained in parallel reactions containing DMSO and subtracting these normalized values from 100%. Intrinsic compound fluorescence was independently monitored, and FP data points confounded by compound fluorescence were excluded from the analysis.

Row | Structure (SMILES) | IC50 [nM]
1 | C[C@H](O)C(=O)N1CCC(CCn2c(Sc3cc4c(cc3Br)CCO4)nc3c(N)ncnc32)CC1 [Example Compound 173, (2S)-1-[4-(2-{6-Amino-8-[(5-bromo-2,3-dihydro-1-benzofuran-6-yl)thio]-9H-purin-9-yl}ethyl)piperidin-1-yl]-1-oxopropan-2-ol] | 35
2 | COC(=O)c1cc2c(cc1Sc1nc3c(N)ncnc3n1CCC1CCNCC1)OCO2 [Example Compound 174, Methyl 6-{[6-amino-9-(2-piperidin-4-ylethyl)-9H-purin-8-yl]thio}-1,3-benzodioxole-5-carboxylate] | 150
3 | CCOC(=O)c1cc2c(cc1Sc1nc3c(N)ncnc3n1CCC1CCNCC1)OCO2 [Example Compound 175, ethyl 6-{[6-amino-9-(2-piperidin-4-ylethyl)-9H-purin-8-yl]thio}-1,3-benzodioxole-5-carboxylate] | 70
4 | Nc1ncnc2c1nc(Sc1cc3ccoc3cc1Br)n2CCC1CCN(C=O)CC1 [Example Compound 176, 4-(2-{6-Amino-8-[(6-bromo-1-benzofuran-5-yl)thio]-9H-purin-9-yl}ethyl)piperidine-1-carbaldehyde] | 900
5 | Nc1ncnc2c1nc(Sc1cc3occc3cc1Cl)n2CCC1CCN(C=O)CC1 [Example Compound 178, 4-(2-{6-Amino-8-[(5-chloro-1-benzofuran-6-yl)thio]-9H-purin-9-yl}ethyl)piperidine-1-carbaldehyde] | 305
6 | Nc1ncnc2c1nc(Sc1cc(Br)c3c(c1)CCO3)n2CCC1CCN(C=O)CC1 [Example Compound 179, 4-(2-{6-Amino-8-[(7-bromo-2,3-dihydro-1-benzofuran-5-yl)thio]-9H-purin-9-yl}ethyl)piperidine-1-carbaldehyde] | 4000
7 | Nc1ncnc2c1nc(Sc1cc3c(cc1Br)OCC3)n2CCC1CCN(C=O)CC1 [Example Compound 180, 4-(2-{6-Amino-8-[(6-bromo-2,3-dihydro-1-benzofuran-5-yl)thio]-9H-purin-9-yl}ethyl)piperidine-1-carbaldehyde] | 400
8 | CC1(C)CCc2cc(Br)c(Sc3nc4c(N)ncnc4n3CCC3CCN(C=O)CC3)cc21 [Example Compound 181, 4-(2-{6-Amino-8-[(6-bromo-3,3-dimethyl-2,3-dihydro-1H-inden-5-yl)thio]-9H-purin-9-yl}ethyl)piperidine-1-carbaldehyde] | 1500
9 | Nc1ncnc2c1nc(Sc1cc(Br)c3occc3c1)n2CCC1CCN(C=O)CC1 [Example Compound 182, 4-(2-{6-Amino-8-[(7-bromo-1-benzofuran-5-yl)thio]-9H-purin-9-yl}ethyl)piperidine-1-carbaldehyde] | > 5000
10 | Nc1ncnc2c1nc(Sc1cc3c(cc1F)OCCO3)n2CCC1CCN(C=O)CC1 [Example Compound 183, 4-(2-{6-Amino-8-[(7-fluoro-2,3-dihydro-1,4-benzodioxin-6-yl)thio]-9H-purin-9-yl}ethyl)piperidine-1-carbaldehyde] | 2900
11 | CN1CCOc2cc(Br)c(Sc3nc4c(N)ncnc4n3CCC3CCN(C=O)CC3)cc21 [Example Compound 184, 4-(2-{6-Amino-8-[(7-bromo-4-methyl-3,4-dihydro-2H-1,4-benzoxazin-6-yl)thio]-9H-purin-9-yl}ethyl)piperidine-1-carbaldehyde] | 310
12 | CN1CCOc2cc(Sc3nc4c(N)ncnc4n3CCC3CCN(C=O)CC3)c(Cl)cc21 [Example Compound 185, 4-(2-{6-Amino-8-[(6-chloro-4-methyl-3,4-dihydro-2H-1,4-benzoxazin-7-yl)thio]-9H-purin-9-yl}ethyl)piperidine-1-carbaldehyde] | 400
13 | CN1CCOc2cc(Sc3nc4c(N)ncnc4n3CCC3CCN(C=O)CC3)c(Br)cc21 [Example Compound 186, 4-(2-{6-Amino-8-[(6-bromo-4-methyl-3,4-dihydro-2H-1,4-benzoxazin-7-yl)thio]-9H-purin-9-yl}ethyl)piperidine-1-carbaldehyde] | 65
14 | CN1CCOc2cc(Sc3nc4c(N)ncnc4n3CCC3CCN(C=O)CC3)ccc21 [Example Compound 187, 4-(2-{6-Amino-8-[(4-methyl-3,4-dihydro-2H-1,4-benzoxazin-7-yl)thio]-9H-purin-9-yl}ethyl)piperidine-1-carbaldehyde] | 5000
15 | Nc1ncnc2c1nc(Sc1cc3c(cc1Cl)OCO3)n2CCC1CCN(C=O)CC1 [Example Compound 188, 4-(2-{6-Amino-8-[(6-chloro-1,3-benzodioxol-5-yl)thio]-9H-purin-9-yl}ethyl)piperidine-1-carbaldehyde] | 205
16 | Nc1ncnc2c1nc(Sc1cc3occc3cc1Br)n2CCC1CCC(F)(F)CC1 [Example Compound 189, 8-[(5-Bromo-1-benzofuran-6-yl)thio]-9-[2-(4,4-difluorocyclohexyl)ethyl]-9H-purin-6-amine] | > 5000
17 | Nc1ncnc2c1nc(Sc1cc3c(cc1Br)OCO3)n2CCC1CCC(F)(F)CC1 [Example Compound 190, 8-[(6-Bromo-1,3-benzodioxol-5-yl)thio]-9-[2-(4,4-difluorocyclohexyl)ethyl]-9H-purin-6-amine] | 650
18 | CC(C)(C)OC(=O)N1CCC(CCn2c(Sc3cc4occc4cc3Br)nc3c(N)ncnc32)CC1 [Example Compound 191, tert-Butyl 4-(2-{6-amino-8-[(5-bromo-1-benzofuran-6-yl)thio]-9H-purin-9-yl}ethyl)piperidine-1-carboxylate] | 2500
19 | CC(C)(C)OC(=O)N1CCC(CCn2c(Sc3cc4c(cc3C(F)(F)F)OCC4)nc3c(N)ncnc32)CC1 [Example Compound 192, tert-Butyl 4-[2-(6-amino-8-{[6-(trifluoromethyl)-2,3-dihydro-1-benzofuran-5-yl]thio}-9H-purin-9-yl)ethyl]piperidine-1-carboxylate] | > 5000
20 | CN(C)C(=O)c1cc2c(cc1Sc1nc3c(N)ncnc3n1CCC1CCN(C=O)CC1)OCO2 [Example Compound 193, 6-({6-amino-9-[2-(1-formylpiperidin-4-yl)ethyl]-9H-purin-8-yl}thio)-N,N-dimethyl-1,3-benzodioxole-5-carboxamide] | 4300
21 | CC(=O)OCC(=O)N1CCC(CCn2c(Sc3cc4occc4cc3Br)nc3c(N)ncnc32)CC1 [Example Compound 194, 2-[4-(2-{6-Amino-8-[(5-bromo-1-benzofuran-6-yl)thio]-9H-purin-9-yl}ethyl)piperidin-1-yl]-2-oxoethyl acetate] | 150
22 | Nc1ncnc2c1nc(Sc1cc3occc3cc1Br)n2CCC1CCN(C(=O)CO)CC1 [Example Compound 195, 2-[4-(2-{6-Amino-8-[(5-bromo-1-benzofuran-6-yl)thio]-9H-purin-9-yl}ethyl)piperidin-1-yl]-2-oxoethanol] | 45
23 | Nc1ncnc2c1nc(Sc1cc3occc3cc1Br)n2CCC1CCNCC1 [Example Compound 197, 8-[(5-Bromo-1-benzofuran-6-yl)thio]-9-(2-piperidin-4-ylethyl)-9H-purin-6-amine] | 150
24 | CC(=O)O[C@@H](C)C(=O)N1CCC(CCn2c(Sc3cc4occc4cc3Br)nc3c(N)ncnc32)CC1 [Example Compound 198, (1S)-2-[4-(2-{6-Amino-8-[(5-bromo-1-benzofuran-6-yl)thio]-9H-purin-9-yl}ethyl)piperidin-1-yl]-1-methyl-2-oxoethyl acetate] | 110
25 | C[C@H](O)C(=O)N1CCC(CCn2c(Sc3cc4occc4cc3Br)nc3c(N)ncnc32)CC1 [Example Compound 199, (2S)-1-[4-(2-{6-Amino-8-[(5-bromo-1-benzofuran-6-yl)thio]-9H-purin-9-yl}ethyl)piperidin-1-yl]-1-oxopropan-2-ol] | 190
26 | C[C@@H](OC(=O)C(C)(C)C)C(=O)N1CCC(CCn2c(Sc3cc4occc4cc3Br)nc3c(N)ncnc32)CC1 [Example Compound 200, (1R)-2-[4-(2-{6-Amino-8-[(5-bromo-1-benzofuran-6-yl)thio]-9H-purin-9-yl}ethyl)piperidin-1-yl]-1-methyl-2-oxoethyl pivalate] | 185
27 | C[C@@H](O)C(=O)N1CCC(CCn2c(Sc3cc4occc4cc3Br)nc3c(N)ncnc32)CC1 [Example Compound 201, (2R)-1-[4-(2-{6-Amino-8-[(5-bromo-1-benzofuran-6-yl)thio]-9H-purin-9-yl}ethyl)piperidin-1-yl]-1-oxopropan-2-ol] | 200
28 | C[C@H](O)C(=O)N1CCC(CCn2c(Sc3cc4c(cc3Cl)OCO4)nc3c(N)ncnc32)CC1 [Example Compound 203, (2S)-1-[4-(2-{6-Amino-8-[(6-chloro-1,3-benzodioxol-5-yl)thio]-9H-purin-9-yl}ethyl)piperidin-1-yl]-1-oxopropan-2-ol] | 395
29 | C[C@@H](O)C(=O)N1CCC(CCn2c(Sc3cc4c(cc3Cl)OCO4)nc3c(N)ncnc32)CC1 [Example Compound 204, (2R)-1-[4-(2-{6-Amino-8-[(6-chloro-1,3-benzodioxol-5-yl)thio]-9H-purin-9-yl}ethyl)piperidin-1-yl]-1-oxopropan-2-ol] | 400
